From US4485113A (priority 1979, dated 1984) come the findings set out here.

The subject of one data set is rat.
Assay: not given
As to conditions: in vivo, po.
For the compound `CNC(=O)ON=C(C)SC` [Compound 1], the “A.O. Rat. LD50” value is recorded as 49 mg/kg.

As for `CNC(=O)ON=C(C)SC(C)C` [Compound 3], the “A.O. Rat. LD50” value is 8 mg/kg.

System in a further data set: not listed separately
Nature of the data set: in vivo. The following applies: rat, po.
As to `CSC(C)=NOC(=O)N(C)SC(C)(C)C#N` [X, 1-Methylthioacetaldehyde O-[N-methyl-N-(2-cyano-2-propanesulfenyl)carbamoyl]oxime], the LD50 (as a rule, the dose at which mortality reaches 50%) was 127 mg/kg.

As to `CN(SC(C)(C)CCl)C(=O)ON=C1SC(C)(C)C(=O)N1C` [XIII, 3,5,5-Trimethyl-2-[[O--[N--methyl-N--(2-chloromethyl-2-propanesulfenyl)carbamoyl]oximino]]-4-thiazolidinone], the LD50 was 343 mg/kg.

In turn, `CN(SC(C)(C#N)CCl)C(=O)ON=C1SC(C)(C)C(=O)N1C` (centres unmarked) [XIX, 3,5,5-Trimethyl-2-[[O--[N--methyl-N--(1-chloro-2-cyano-2-propanesulfenyl)carbamoyl]oximino]]-4-thiazolidinone] displayed an LD50 of 320 mg/kg.

`CC(=NOC(=O)N(C)SC(C)(C)C#N)SC(C)C` [XXIII, 1-Isopropylthioacetaldehyde O--[N--methyl-N--(2-cyano-2-propanesulfenyl)carbamoyl]oxime] came in with an LD50 of 20 mg/kg.

For `CC(=NOC(=O)N(C)SC(C)(C)C#N)SCCC#N` [XXIV, 1-(2-Cyanoethylthio)acetaldehyde O--[N--methyl-N--(2-cyano-2-propanesulfenyl)carbamoyl]oxime], the LD50 stood at 14.1 mg/kg.

Take `CC(=NOC(=O)N(C)SSC(C)(C)C#N)SC(C)C` [XXIX, 1-Isopropylthioacetaldehyde O--[N-- methyl-N--(2-cyano-2-propanethiosulfenyl)carbamoyl]oxime]: the LD50 is 18 mg/kg.

Turning to `CN(SC(C)(C)C#N)C(=O)ON=C1CSCCS1` [XXVI, 2-[[O--[N--methyl-N--(2-cyano-2-propanesulfenyl)carbamoyl]oximino]]-1,4-dithiane], the LD50 amounted to 40 mg/kg.

`CC(=NOC(=O)N(C)SSC(C)(C)C#N)SCCC#N` [XXVIII, 1-(2-Cyanoethylthio)acetaldehyde O--[N--methyl-N--(2-cyano-2-propanethiosulfenyl)carbamoyl]oxime] came in with an LD50 of 28 mg/kg.

On to `CSC(C)=NOC(=O)N(C)SSC(C)(C)C#N` [XXVII], for which the LD50 stood at 127 mg/kg.

Compound `CN(SSC(C)(C)C#N)C(=O)ON=CC(C)(C)C#N` [XXXII, 2-Cyano-2-methylpropionaldehyde O--[N--methyl-N--(2-cyano-2-propanethiosulfenyl)carbamoyl]oxime] had an LD50 of 14 mg/kg.

In turn, `CC1OCSC1=NOC(=O)N(C)SSC(C)(C)C#N` (centres unmarked) [XXXIV, 5-Methyl-4-[[O--[N--methyl-N--(2-cyano-2-propanethiosulfenyl)carbamoyl]oximino]]-1,3-oxathiolane] registered an LD50 of 14 mg/kg.

`CN(SSC(C)(C)C#N)C(=O)ON=C1CSCCS1` [XXXV, 2-[[O--[N--methyl-N--(2-cyano-2-propanethiosulfenyl)carbamoyl]oximino]]-1,4-dithiane] registered an LD50 of 32 mg/kg.
